Experimental data taken from ChEMBL document CHEMBL4507291 (2021).

Tests used:
[1] = target: B1 bradykinin receptor (Homo sapiens) (UniProt P46663); assay: Inhibition of Bradykinin B1 at 10 µM in the Eurofins-Panlabs radioligand binding assay (Eurofins_assay_212510); conditions: Compound concentration 10.0 uM
[2] = target: T1, Discoidin domain-containing receptor 2 (Homo sapiens) (UniProt Q16832); assay: DDR2 Kinase screen; conditions: Compound concentration 1.0 uM
T1 sequence (whole entry): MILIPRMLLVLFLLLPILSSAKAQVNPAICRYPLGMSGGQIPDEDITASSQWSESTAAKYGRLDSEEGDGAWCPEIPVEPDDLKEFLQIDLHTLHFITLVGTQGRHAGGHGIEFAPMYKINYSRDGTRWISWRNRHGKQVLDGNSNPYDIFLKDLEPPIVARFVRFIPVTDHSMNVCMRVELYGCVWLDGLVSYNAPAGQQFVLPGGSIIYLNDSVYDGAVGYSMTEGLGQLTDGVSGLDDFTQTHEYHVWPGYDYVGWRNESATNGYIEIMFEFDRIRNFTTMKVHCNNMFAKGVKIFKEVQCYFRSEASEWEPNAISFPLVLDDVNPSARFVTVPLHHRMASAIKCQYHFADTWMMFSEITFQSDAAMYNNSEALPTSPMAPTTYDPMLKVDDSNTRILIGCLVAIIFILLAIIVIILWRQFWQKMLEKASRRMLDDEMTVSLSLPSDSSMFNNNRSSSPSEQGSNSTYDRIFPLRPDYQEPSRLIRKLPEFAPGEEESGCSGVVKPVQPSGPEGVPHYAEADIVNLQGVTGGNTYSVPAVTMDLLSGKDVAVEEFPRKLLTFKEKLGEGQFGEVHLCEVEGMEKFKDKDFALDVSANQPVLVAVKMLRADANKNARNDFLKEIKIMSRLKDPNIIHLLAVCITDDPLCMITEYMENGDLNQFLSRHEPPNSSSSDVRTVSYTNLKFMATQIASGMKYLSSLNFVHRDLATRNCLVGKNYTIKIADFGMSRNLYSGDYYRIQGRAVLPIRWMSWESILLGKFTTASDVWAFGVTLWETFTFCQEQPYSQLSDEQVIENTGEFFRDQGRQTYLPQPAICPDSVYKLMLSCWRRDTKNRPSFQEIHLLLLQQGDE

[3] = target: T2, Ephrin type-A receptor 1 (Homo sapiens) (UniProt P21709); assay: EPHA1 Kinase screen; conditions: Compound concentration 1.0 uM
T2 sequence (whole entry): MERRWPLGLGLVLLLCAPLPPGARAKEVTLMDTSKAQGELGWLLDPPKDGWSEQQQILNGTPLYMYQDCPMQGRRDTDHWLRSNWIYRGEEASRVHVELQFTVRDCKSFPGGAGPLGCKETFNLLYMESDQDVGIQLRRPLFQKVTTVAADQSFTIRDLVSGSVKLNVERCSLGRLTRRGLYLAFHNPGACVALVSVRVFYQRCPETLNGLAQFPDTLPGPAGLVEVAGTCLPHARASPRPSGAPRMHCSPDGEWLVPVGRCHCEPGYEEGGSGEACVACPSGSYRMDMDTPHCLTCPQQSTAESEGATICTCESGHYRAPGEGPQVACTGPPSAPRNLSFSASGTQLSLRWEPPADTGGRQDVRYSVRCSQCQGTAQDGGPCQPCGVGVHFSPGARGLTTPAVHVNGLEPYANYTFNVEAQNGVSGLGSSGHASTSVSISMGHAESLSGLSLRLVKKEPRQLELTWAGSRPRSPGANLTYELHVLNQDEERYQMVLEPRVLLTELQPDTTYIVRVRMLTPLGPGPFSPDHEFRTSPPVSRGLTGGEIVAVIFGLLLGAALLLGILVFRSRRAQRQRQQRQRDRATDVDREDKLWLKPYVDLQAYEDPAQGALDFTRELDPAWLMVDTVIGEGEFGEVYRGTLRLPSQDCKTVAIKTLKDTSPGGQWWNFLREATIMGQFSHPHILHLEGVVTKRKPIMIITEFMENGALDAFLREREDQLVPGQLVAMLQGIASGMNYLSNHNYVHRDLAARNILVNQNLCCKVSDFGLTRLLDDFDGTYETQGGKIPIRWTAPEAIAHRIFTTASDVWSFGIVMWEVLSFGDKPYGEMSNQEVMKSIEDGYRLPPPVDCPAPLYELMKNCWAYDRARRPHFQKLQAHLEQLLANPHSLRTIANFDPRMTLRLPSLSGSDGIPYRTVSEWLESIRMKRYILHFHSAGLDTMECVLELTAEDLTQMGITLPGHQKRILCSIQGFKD

[4] = target: Mitogen-activated protein kinase kinase kinase kinase 4 (Homo sapiens) (UniProt O95819); assay: MAP4K4 (HGK) Kinase screen; conditions: Compound concentration 1.0 uM
Sequence of Mitogen-activated protein kinase kinase kinase kinase 4 (Homo sapiens) (O95819 2-1239 limits assumed): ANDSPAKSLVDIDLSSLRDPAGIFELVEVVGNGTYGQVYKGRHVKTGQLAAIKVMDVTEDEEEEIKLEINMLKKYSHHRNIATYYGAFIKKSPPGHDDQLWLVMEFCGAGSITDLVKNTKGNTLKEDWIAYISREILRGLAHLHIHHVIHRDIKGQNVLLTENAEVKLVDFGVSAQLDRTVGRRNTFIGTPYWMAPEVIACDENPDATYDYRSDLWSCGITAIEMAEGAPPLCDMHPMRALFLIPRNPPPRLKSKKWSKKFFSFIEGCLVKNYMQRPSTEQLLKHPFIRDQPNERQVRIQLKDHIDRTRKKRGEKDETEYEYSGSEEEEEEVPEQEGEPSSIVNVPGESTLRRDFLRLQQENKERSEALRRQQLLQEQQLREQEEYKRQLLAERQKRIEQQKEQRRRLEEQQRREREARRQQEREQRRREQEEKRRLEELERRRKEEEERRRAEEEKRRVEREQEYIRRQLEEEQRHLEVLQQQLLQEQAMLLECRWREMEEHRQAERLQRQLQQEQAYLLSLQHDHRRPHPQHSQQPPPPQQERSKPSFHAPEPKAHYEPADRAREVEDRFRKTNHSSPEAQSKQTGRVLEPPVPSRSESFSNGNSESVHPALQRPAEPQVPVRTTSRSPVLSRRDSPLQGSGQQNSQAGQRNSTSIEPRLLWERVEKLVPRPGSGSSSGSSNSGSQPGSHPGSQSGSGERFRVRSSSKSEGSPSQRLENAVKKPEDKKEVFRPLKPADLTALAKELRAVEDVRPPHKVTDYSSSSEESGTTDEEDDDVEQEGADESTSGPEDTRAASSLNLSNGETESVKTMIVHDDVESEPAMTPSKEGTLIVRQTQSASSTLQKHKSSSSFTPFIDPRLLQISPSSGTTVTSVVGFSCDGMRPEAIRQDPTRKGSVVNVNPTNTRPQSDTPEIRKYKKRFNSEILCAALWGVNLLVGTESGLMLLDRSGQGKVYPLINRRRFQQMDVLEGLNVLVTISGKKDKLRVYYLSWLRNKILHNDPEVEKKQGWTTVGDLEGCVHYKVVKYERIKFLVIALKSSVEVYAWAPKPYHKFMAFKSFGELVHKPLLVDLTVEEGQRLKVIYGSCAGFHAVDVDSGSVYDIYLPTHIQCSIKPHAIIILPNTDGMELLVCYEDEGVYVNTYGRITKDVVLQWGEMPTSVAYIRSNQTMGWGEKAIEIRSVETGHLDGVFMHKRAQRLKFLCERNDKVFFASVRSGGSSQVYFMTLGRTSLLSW

[5] = target: T3, Peroxisome proliferator-activated receptor gamma (Homo sapiens) (UniProt P37231); assay: (§1) PPARgamma Eurofins-Panlabs radioligand binding assay; design: ligand concentration 5 nM, non-specific ligand with concentration 0.5 µM L-797773, incubation time 18 h, incubation temperature 15 °C
T3 sequence (whole entry): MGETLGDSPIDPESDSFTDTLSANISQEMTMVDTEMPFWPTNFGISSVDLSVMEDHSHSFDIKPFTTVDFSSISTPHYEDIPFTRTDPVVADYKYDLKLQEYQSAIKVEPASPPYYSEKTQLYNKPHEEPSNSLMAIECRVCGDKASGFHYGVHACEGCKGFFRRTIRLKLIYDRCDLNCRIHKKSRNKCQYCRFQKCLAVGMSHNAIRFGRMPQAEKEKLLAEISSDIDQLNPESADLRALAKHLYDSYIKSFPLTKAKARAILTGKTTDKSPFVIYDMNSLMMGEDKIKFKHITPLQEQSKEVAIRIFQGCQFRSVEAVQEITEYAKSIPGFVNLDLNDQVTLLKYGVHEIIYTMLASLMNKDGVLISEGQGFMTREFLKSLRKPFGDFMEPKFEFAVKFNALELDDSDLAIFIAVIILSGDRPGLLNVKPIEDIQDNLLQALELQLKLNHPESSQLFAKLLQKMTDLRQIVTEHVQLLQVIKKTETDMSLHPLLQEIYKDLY

[6] = target: Peroxisome proliferator-activated receptor gamma (Homo sapiens, UniProt P37231); assay: as §1; design: ligand concentration 5 nM, non-specific ligand with concentration 0.5 µM L-797773, incubation time 18 h, incubation temperature 15 °C
[7] = target: Acetylcholinesterase (Homo sapiens) (UniProt P22303); conditions: Compound concentration 10.0 uM
Sequence of Acetylcholinesterase (Homo sapiens) (P22303 whole entry): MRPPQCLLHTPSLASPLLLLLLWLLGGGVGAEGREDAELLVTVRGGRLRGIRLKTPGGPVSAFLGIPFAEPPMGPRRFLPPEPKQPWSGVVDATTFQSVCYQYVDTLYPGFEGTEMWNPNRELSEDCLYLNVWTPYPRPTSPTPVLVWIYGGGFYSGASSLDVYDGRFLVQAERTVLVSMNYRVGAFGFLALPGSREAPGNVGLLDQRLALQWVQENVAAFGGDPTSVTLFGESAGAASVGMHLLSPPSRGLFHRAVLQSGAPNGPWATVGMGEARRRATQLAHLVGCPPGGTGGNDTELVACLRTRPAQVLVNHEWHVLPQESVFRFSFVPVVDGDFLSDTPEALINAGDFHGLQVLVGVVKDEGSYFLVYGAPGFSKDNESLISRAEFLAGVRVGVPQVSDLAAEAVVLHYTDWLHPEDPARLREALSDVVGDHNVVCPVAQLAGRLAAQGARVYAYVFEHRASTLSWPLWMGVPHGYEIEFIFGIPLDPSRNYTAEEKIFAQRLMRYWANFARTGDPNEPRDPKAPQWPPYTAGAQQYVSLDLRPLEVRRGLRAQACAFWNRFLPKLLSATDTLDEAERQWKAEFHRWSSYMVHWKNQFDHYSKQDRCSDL

[8] = target: GABA-A receptor; anion channel (Rattus norvegicus) (UniProt O09028+P15431+P18506+P18508+P19969+P20236+P23574+P23576+P28471+P28473+P30191+P62813+P63079+P63138+Q91ZM7+Q9ES14); conditions: Compound concentration 10.0 uM

Sequence of B1 bradykinin receptor (Homo sapiens) (P46663 whole entry, the tested form may be a part): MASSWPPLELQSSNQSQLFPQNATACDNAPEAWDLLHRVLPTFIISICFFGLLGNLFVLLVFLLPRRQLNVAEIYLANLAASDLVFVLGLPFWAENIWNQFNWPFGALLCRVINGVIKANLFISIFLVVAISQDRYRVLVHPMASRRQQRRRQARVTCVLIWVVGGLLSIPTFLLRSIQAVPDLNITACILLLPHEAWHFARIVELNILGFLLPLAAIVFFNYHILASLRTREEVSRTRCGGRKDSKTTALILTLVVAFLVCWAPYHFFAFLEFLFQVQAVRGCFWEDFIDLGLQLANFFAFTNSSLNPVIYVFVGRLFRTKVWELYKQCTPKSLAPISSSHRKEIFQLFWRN

C[C@@H]1CN(c2cc(-c3n[nH]c4ccc(OC5(C)CC5)cc34)ncn2)C[C@H](C)O1 [MLi-2]
inhibition [1]: 8%
inhibition [2]: 3.64%
inhibition [3]: 7.77%
inhibition [4]: 17.1%
inhibition ([5]; Compound concentration 0.01 uM): 6%
inhibition ([5]; Compound concentration 0.1 uM): 0%
inhibition ([5]; Compound concentration 1.0 uM): 10%
inhibition ([5]; Compound concentration 10.0 uM): 62%
Ki [6]: 1190 nM
inhibition [7]: -2%
inhibition [8]: 35%
